Patent US7001913B1, “Aminopiperidine derivatives as antibacterials” (SmithKline Beecham P.L.C., priority 1999, dated 2006)

System: S. aureus Oxford, S. aureus WCUH29, S. pneumoniae 1629, S. pneumoniae N1387, S. pneumoniae ERY 2
Assay: MIC of test compounds against various organisms
Type: cell-based
Settings: against one or more of S. aureus Oxford
Method: The MIC (μg/ml) of test compounds against various organisms was determined: S. aureus Oxford, S. aureus WCUH29, S. pneumoniae 1629, S. pneumoniae N1387, S. pneumoniae ERY 2.

MIC: ≤ 1 µg/mL
Structure (SMILES): CCCCCCCNC1CCN(C[C@H](O)c2ccnc3ccc(OC)cc23)CC1C(N)=O (mixture of isomers) [Example 4, cis-3-(R/S)-Aminocarbonyl-4-(S/R)-heptylamino-1-[2-(R)-hydroxy-2-(6-methoxyquinolin-4-yl)]ethylpiperidine dioxalate]
